We go through five compounds from ChEMBL document CHEMBL4622891, “Design, synthesis, and pharmacological evaluation of 2-(4-sulfonylphenyl)-2-[(E)-pyrrolidin-1-ylimino]-N-thiazoleacetamides as glucokinase activators” (Bioorg Med Chem Lett, 2020).

Structures are written as SMILES.

For this assay, the target named is Voltage-gated inwardly rectifying potassium channel KCNH2 (Homo sapiens, UniProt Q12809). The assay can be described thus: Inhibition of human ERG.
Sequence of Voltage-gated inwardly rectifying potassium channel KCNH2 (Q12809 whole entry): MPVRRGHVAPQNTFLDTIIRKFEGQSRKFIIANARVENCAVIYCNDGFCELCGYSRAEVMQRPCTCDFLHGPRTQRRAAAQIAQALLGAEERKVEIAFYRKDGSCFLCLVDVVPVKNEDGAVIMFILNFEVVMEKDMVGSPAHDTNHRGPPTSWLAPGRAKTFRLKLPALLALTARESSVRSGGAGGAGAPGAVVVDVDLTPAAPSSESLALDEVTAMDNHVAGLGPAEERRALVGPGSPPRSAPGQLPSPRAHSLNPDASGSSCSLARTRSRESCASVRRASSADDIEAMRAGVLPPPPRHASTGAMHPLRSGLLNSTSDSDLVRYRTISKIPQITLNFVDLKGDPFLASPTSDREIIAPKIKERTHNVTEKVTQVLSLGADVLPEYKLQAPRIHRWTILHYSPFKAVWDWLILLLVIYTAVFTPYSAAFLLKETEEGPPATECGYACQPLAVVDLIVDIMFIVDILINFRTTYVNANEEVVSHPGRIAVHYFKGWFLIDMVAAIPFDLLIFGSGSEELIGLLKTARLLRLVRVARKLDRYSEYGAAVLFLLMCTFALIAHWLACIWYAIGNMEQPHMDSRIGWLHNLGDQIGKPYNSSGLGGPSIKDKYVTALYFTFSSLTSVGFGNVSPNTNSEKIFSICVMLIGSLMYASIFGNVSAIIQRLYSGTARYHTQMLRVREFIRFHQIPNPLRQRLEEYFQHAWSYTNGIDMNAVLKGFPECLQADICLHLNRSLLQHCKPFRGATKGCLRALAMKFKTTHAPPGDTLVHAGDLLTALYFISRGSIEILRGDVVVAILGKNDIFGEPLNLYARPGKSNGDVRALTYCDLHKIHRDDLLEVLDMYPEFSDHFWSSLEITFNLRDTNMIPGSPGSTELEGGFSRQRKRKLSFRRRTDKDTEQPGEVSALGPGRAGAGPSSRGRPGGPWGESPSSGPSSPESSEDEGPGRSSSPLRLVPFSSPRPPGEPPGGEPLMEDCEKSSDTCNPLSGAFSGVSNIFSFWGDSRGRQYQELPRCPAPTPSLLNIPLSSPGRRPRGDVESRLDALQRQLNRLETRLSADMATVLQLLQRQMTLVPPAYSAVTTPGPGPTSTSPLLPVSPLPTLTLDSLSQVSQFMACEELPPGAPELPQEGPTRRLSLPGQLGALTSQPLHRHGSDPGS
The term IC50 denotes the concentration needed to halve the response being measured. Lower therefore signals greater potency. Turning to `Cc1cnc(NC(=O)/C(=N/N2CCCC2)c2ccc(S(=O)(=O)C3CC3)cc2)s1`, the IC50 is over 100 µM.

The compound `Cc1nnc(NC(=O)/C(=N/N2CCCC2)c2ccc(S(=O)(=O)C3CC3)cc2)s1` yielded an IC50 of over 100 µM. As for `O=C(Nc1ncc(Cl)s1)/C(=N/N1CCCC1)c1ccc(S(=O)(=O)C2CC2)cc1`, the IC50 is 16.7 µM.

`CC(=O)N1CCN(Cc2cnc(NC(=O)/C(=N/N3CCCC3)c3ccc(S(=O)(=O)C4CC4)cc3)s2)CC1`: the IC50 is over 100 µM. With `O=C(Nc1nccs1)/C(=N/N1CCCC1)c1ccc(S(=O)(=O)C2CC2)cc1` the figure was 17.5 µM.
